Experimental data: paper PMC4522657, “Identification of a DYRK1A Inhibitor that Induces Degradation of the Target Kinase using Co-chaperone CDC37 fused with Luciferase nanoKAZ” (Scientific Reports, 2015)

Key:
CLK1 = CLK1 (Homo sapiens, UniProt P49759); experiment: Western blot of target kinase expression in HEK293 cells; type: cell-based; set-up: endogenous in cells; host or cells: HEK293; conditions: CaNDY 2 μM, 4 days
Description: (§1) To check selectivity of CaNDY for other kinases, we first examined protein expression of several kinases in HEK293 cells treated with CaNDY (2 μM) for 4 days. […] Third, protein expression of these kinases targeted by CaNDY (DYRK1A, DYRK1B, CLK1, and Haspin) was reassessed by Western blot analysis as performed in Fig. 7b.
(§2) Western blot analysis was performed using the antibodies described above. In brief, total cell lysates were separated by SDS-PAGE (5–20% gels; ATTO, Tokyo, Japan) under reducing conditions and then transferred to a PVDF membrane (PALL, SP, Brazil). Antibody reactions were performed with Can Get Signal® Immunoreaction Enhancer Solution (Toyobo). Peroxidase activities on the membrane were visualized with ECL Western Blotting Detection Reagents (GE Healthcare) or ImmunoStar® LD (Wako Pure Chemical Industries, Osaka, Japan), and a ChemiDoc^TM MP Imaging System (Bio-Rad, Hercules, CA, USA).

DYRK1B = DYRK1B (Homo sapiens, UniProt Q9Y463); experiment: as above; type: cell-based; set-up: endogenous in cells; host or cells: HEK293; conditions: CaNDY 2 μM, 4 days
Description: as §1, §2

KDR = molecular target: T1, KDR (Homo sapiens, UniProt P35968); experiment: Kinase panel, CaNDY 1 µM; type: biochemical; conditions: CaNDY 1 µM relative to DMSO
T1 construct: purchased Carna Biosciences

[1] = molecular target: T2, interaction of CDC37-nanoKAZ with 3xFLAG-DYRK1A (Y319F/Y321F) (Homo sapiens, UniProt Q13627, Y319F/Y321F); experiment: CDC37-nanoKAZ binding assay (ELISA of the CDC37-nanoKAZ interaction) in 293T cells; type: cell-based
T2 construct: F2A peptide linking to EGFP (2A skipping releases EGFP; a 2A remnant may stay on DYRK1A) (C); expressed in transfected cells; host or cells: 293T cells stably expressing CDC37-nanoKAZ, transiently transfected with pcDNA5/FRT/TO 3xFLAG-DYRK1A (Y319F/Y321F)
Description: The cells were then treated with the indicated concentrations of small molecules for one hour. Cell lysates were added to FLAG antibody-coated 96-well plates and luminescence intensities were measured. The amount of bound 3xFLAG-DYRK1A was measured using a HRP-conjugated antibody against FLAG. The relative Imax for CDC37-nanoKAZ was normalized using the amount of bound protein.
Stable cell lines transfected with expression vectors for 3xFLAG-tagged DYRK family kinases and its mutants were lysed in ice-cold HENG buffer (50 mM HEPES-KOH, pH 7.9, 150 mM NaCl, 20 mM Na2MoO4, 2 mM EDTA, 5% Glycerol, 0.5% TritonX-100) containing protease inhibitor cocktail (Nacalai Tesque) on ice. […] The wells were wash three times with ice-cold HENG buffer and then a luminescence assay was performed.
The luminescence activity of the cell lysates was determined using a Centro LB 960 Microplate Luminometer (Berthold Technologies, Bad Wildbad, Germany). A reaction mixture containing bis-coelenterazine (final concentration of 0.1–1 μg/100 μL) in PBS containing 0.02% Tween20 and 20 mM EDTA was injected. The luminescence intensity was recorded at 0.1 s intervals for 10 s or 10 min. The maximum luminescence intensity (Imax), represented in relative luminescence units (rlu), was used in the study.
After measuring the luminescence intensities, the wells were washed three times with HENG buffer, and incubated with HRP-conjugated anti-FLAG antibody diluted with PBS containing […] and 2% fetal bovine serum at 37 °C for one hour. After extensive washing, […] Super Sensitive One Component HRP Microwell Substrate (SurModics, Eden Prairie, MN, USA) was added into the well and the reaction was stopped with sulfuric acid. Absorbance at 450 nm was measured with ARVO X5 (PerkinElmer). The relative amount of protein bound on the well was estimated from the absorbance.
In Supporting Figure S1a, the values of Imax are shown in kinetics plots. In Figs 2c,e, 3c, S1d, S3, and S4, the relative luminescence intensities are shown as the fold-change in the Imax values of the samples relative to Imax with EGFP. In Figs 4, 5a,c and 6c, the relative luminescence intensities were normalized to the amount of the bound 3xFLAG-DYRK1A mutant and calculated as the fold-change relative to the value at 0 μM of the compounds.
Small molecules in our original synthetic chemical library, including unpublished small molecule inhibitors of DYRK1A and its structural derivatives (data not shown), were added to the 96-well plates containing the transfected cells at a final concentration of 4 μM. The cells were then processed as described above.

endogenous DYRK1A = molecular target: T3, endogenous DYRK1A (Homo sapiens, UniProt Q13627); experiment: Western blot of endogenous DYRK1A protein in HEK293 cells; type: cell-based; conditions: CaNDY 2 μM, 4 days
T3 construct: endogenous in cells; host or cells: HEK293
Description: We investigated whether CaNDY destabilizes DYRK1A as ganetespib does. […] Next we examined whether CaNDY decreased endogenous DYRK1A protein. HEK293 cells were cultured for 0–4 days with CaNDY (2 μM) and then subjected to SDS-PAGE followed by Western blot analysis using antibodies against DYRK1A and GAPDH. […] The treated cells were also subjected to reverse transcription followed by quantitative PCR analysis.
as §2

CK1γ2 = molecular target: T4, CK1γ2 (Homo sapiens, UniProt P78368); experiment: Kinase panel, CaNDY 1 µM; type: biochemical; conditions: CaNDY 1 µM relative to DMSO
T4 construct: purchased Carna Biosciences

PAK5 = molecular target: T5, PAK5 (Homo sapiens, UniProt Q9P286); experiment: Kinase panel, CaNDY 1 µM; type: biochemical; conditions: CaNDY 1 µM relative to DMSO
T5 construct: purchased Carna Biosciences

MAP2K6_Cascade = molecular target: T6, MAP2K6_Cascade (Homo sapiens, UniProt P52564); experiment: Kinase panel, CaNDY 1 µM; type: biochemical; conditions: CaNDY 1 µM relative to DMSO
T6 construct: purchased Carna Biosciences

EGFR(T790M) = molecular target: T7, EGFR(T790M) (Homo sapiens, UniProt P00533, T790M); experiment: Kinase panel, CaNDY 1 µM; type: biochemical; conditions: CaNDY 1 µM relative to DMSO
T7 construct: purchased Carna Biosciences

T1 sequence (P35968 20-1356): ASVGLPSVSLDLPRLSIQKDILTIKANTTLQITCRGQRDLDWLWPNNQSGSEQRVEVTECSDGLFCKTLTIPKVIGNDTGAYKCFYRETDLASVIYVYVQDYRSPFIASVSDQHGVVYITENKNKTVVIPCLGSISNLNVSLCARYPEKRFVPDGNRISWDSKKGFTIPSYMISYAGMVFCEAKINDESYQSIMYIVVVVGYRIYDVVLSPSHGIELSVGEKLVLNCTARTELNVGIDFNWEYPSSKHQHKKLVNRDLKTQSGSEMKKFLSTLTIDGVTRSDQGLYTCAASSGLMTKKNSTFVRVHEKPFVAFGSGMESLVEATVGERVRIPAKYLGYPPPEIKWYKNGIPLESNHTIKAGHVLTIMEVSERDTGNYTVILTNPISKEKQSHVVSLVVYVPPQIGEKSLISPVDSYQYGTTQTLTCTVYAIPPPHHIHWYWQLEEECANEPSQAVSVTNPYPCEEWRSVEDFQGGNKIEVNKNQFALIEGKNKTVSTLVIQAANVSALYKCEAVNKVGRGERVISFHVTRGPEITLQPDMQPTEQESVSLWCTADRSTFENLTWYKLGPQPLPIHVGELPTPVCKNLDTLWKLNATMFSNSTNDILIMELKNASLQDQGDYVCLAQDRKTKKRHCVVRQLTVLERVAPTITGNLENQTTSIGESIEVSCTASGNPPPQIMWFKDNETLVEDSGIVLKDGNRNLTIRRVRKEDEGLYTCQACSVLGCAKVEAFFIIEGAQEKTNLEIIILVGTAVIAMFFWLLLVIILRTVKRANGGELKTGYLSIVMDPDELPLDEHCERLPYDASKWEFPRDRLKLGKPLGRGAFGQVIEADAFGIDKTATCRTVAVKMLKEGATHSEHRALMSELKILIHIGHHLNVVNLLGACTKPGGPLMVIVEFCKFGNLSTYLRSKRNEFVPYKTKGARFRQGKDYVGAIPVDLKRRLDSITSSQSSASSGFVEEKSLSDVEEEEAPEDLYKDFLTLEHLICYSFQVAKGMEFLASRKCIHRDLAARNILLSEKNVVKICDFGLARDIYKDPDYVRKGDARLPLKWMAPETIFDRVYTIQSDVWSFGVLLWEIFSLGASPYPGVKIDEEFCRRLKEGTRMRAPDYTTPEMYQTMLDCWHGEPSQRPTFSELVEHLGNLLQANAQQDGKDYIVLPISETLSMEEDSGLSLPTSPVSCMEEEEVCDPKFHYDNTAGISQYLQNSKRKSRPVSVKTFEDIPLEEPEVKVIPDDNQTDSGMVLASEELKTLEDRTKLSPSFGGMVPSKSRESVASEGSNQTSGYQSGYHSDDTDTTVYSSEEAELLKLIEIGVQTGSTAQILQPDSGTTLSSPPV
T4 sequence (P78368 whole entry): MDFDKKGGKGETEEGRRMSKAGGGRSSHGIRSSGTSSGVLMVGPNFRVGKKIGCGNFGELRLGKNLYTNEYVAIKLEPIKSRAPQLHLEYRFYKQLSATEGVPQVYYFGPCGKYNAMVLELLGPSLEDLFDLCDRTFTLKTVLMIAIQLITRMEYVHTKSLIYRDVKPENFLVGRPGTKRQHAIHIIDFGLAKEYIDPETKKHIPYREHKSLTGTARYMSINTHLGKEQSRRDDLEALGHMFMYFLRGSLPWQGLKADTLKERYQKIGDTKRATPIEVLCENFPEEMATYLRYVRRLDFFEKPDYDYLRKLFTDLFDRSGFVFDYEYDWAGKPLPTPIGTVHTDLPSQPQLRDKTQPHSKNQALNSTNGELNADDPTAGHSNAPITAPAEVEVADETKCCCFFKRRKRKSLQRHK
T6 sequence (P52564 whole entry): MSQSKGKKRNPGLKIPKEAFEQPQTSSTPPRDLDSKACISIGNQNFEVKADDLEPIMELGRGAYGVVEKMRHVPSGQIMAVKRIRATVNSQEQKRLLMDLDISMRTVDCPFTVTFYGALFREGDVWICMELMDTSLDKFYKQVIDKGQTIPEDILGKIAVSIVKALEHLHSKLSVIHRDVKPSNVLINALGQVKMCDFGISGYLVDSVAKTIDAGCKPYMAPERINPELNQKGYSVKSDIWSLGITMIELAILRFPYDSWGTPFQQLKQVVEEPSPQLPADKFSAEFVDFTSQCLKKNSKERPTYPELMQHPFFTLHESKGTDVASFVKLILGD
CLK1, sequence (P49759 whole entry): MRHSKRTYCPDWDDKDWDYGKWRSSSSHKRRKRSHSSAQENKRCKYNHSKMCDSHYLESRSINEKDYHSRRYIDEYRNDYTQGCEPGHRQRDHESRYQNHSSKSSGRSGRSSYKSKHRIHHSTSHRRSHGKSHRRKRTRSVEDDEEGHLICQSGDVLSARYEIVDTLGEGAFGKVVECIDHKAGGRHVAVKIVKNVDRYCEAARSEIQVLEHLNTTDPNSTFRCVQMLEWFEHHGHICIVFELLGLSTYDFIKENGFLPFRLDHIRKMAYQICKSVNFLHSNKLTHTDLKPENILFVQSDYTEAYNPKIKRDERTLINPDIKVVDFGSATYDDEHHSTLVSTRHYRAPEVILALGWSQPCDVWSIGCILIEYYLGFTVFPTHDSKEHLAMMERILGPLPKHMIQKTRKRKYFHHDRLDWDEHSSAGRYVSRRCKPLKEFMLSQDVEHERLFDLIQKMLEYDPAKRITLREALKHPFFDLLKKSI
DYRK1B, sequence (Q9Y463 whole entry): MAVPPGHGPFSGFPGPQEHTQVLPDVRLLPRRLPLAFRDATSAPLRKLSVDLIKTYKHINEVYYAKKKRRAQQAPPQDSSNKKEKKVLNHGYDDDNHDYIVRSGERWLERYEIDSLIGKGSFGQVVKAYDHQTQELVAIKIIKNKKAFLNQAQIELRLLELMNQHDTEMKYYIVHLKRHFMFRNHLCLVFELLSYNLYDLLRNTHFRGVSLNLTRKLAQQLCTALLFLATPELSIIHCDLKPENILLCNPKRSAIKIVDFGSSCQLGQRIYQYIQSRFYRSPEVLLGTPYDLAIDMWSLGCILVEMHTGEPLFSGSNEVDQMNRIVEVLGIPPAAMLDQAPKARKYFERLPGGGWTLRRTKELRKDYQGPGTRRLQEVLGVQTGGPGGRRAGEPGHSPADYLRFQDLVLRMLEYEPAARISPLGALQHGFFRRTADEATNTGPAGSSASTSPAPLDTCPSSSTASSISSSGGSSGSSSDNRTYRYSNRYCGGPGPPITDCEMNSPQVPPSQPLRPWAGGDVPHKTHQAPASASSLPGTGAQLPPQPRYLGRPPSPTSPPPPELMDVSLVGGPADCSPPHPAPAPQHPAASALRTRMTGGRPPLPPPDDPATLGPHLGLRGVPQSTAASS
T5 sequence (Q9P286 whole entry): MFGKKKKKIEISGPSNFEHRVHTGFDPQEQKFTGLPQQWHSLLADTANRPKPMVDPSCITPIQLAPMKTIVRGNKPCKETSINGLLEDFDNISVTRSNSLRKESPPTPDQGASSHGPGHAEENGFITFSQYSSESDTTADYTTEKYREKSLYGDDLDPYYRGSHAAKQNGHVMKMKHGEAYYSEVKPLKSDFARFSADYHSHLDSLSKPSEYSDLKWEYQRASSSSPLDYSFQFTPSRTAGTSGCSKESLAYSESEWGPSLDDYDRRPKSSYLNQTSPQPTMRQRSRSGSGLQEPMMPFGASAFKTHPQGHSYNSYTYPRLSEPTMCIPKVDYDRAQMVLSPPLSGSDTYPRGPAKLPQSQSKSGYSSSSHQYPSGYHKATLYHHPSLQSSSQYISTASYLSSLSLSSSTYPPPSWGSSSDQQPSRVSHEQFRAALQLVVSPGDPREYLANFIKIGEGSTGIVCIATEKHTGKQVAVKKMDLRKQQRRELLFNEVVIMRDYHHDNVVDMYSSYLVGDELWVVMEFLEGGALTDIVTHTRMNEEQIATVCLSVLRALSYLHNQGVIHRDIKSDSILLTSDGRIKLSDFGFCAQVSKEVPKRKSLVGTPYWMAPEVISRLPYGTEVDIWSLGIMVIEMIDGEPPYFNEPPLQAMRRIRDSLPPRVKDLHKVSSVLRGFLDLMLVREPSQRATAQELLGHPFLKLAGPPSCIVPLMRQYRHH

SMILES: [H]/N=C1/NC(=O)C(=Cc2ccc3c(c2)CCO3)S1 [CaNDY, (Z)-5-[(2,3-dihydrobenzofuran-5-yl)methylene]-2-iminothiazolidin-4-one]
- protein expression of CLK1 (CLK1): decreased expression
- protein expression of DYRK1B (DYRK1B): decreased expression
- remaining activity at 1 µM (KDR): 102%
- EC50 ([1]; 293T cells stably expressing CDC37-nanoKAZ, treated one hour, read-out: EC50, decrease of relative luminescence intensity): 0.409 µM
- relative luminescence intensity in library screen ([1]; compounds at 4 μM, 253 compounds): decreased the luminescence intensity to the lowest level
- accumulation of endogenous DYRK1A (endogenous DYRK1A): prevented accumulation of endogenous DYRK1A
- protein expression of DYRK1A (reassessed) (endogenous DYRK1A; Fig. 7d): decreased expression
- %Activity (CK1γ2): 75.4%
- remaining activity at 1 µM (PAK5): 97.5%
- remaining activity at 1 µM (MAP2K6_Cascade): 99.5%
- %Activity (EGFR(T790M)): 107.5%
